Results: paper PMC11847724 (Neoplasia (New York, N.Y.), 2025)

Assays:
[1] = Plasma pharmacokinetics of ESK-440 and metabolite CEP-38901; assay type: in vivo, human
[2] = test system: ALK- and FAK-driven xenograft models; conditions: multiple ALK- and FAK-driven xenograft models ref 9, 10; cited from earlier work
[3] = all tested species ref 9; cited from earlier work

Q: For CNC(=O)c1ccccc1Nc1nc(Nc2ccc3c(c2OC)CCC[C@H](N2CCN(CCO)CC2)C3)ncc1Cl [ESK-440], which “Robs (observed accumulation ratio = AUCτ on day 15/AUC0-24 on day 1)” value ([1]; 25 mg/day (N = 3)) is on record?
A: 3.3 (0.76)

Q: And the “Robs (observed accumulation ratio = AUCτ on day 15/AUC0-24 on day 1)” value ([1]; 50 mg/day (N = 3))?
A: 2.2 (1.11)

Q: What about the “Robs (observed accumulation ratio = AUCτ on day 15/AUC0-24 on day 1)” value ([1]; 100 mg/day (N = 3)) of the same compound?
A: 4.2 (3.47)

Q: And the “Robs (observed accumulation ratio = AUCτ on day 15/AUC0-24 on day 1)” value ([1]; 150 mg/day (N = 3))?
A: 3.1 (0.17)

Q: And the “Robs (observed accumulation ratio = AUCτ on day 15/AUC0-24 on day 1)” value ([1]; 250 mg/day (N = 4))?
A: 2.9 (0.81)

Q: And the “Robs (observed accumulation ratio = AUCτ on day 15/AUC0-24 on day 1)” value ([1]; 350 mg/day (N = 4))?
A: 3.3 (0.63)

Q: What about the “Robs (observed accumulation ratio = AUCτ on day 15/AUC0-24 on day 1)” value ([1]; 500 mg/day (N = 4)) of the same compound?
A: 2.4 (0.43)

Q: What about the “Robs (observed accumulation ratio = AUCτ on day 15/AUC0-24 on day 1)” value ([1]; 700 mg/day (N = 5)) of the same compound?
A: 2.2 (0.74)

Q: And the “dose dependence of Cmax and AUC0-24” value ([1]; day 1 and day 15, up to 500 mg/day)?
A: dose-proportional

Q: What about the half-life ([1]; human, plasma, oral) of the same compound?
A: 9.4 to 20.8 h

Q: What about the AUC ([1]; human, plasma, oral, 25 mg/day) of the same compound?
A: 666 ng·h/mL

Q: And the AUC(0-t) ([1]; human, plasma, oral, 25 mg/day, AUC0-24, Day 1, 25 mg/day (N = 3))?
A: 222 ng·h/mL

Q: What about the AUC(0-t) ([1]; human, plasma, oral, 25 mg/day, AUC0-t, Day 1, 25 mg/day (N = 3)) of the same compound?
A: 223 ng·h/mL

Q: And the AUC(0-t) ([1]; human, plasma, oral, 25 mg/day, AUC0-t, Day 15, 25 mg/day (N = 3))?
A: 666 ng·h/mL

Q: And the Cmax ([1]; human, plasma, oral, 25 mg/day, Day 1, 25 mg/day (N = 3))?
A: 20.7 ng/mL

Q: What about the Cmax ([1]; human, plasma, oral, 25 mg/day, Day 15, 25 mg/day (N = 3)) of the same compound?
A: 36.7 ng/mL

Q: And the Tmax ([1]; human, plasma, oral, 25 mg/day, tmax, Day 1, 25 mg/day (N = 3), median (range))?
A: 3 h

Q: What about the Tmax ([1]; human, plasma, oral, 25 mg/day, tmax, Day 15, 25 mg/day (N = 3), median (range)) of the same compound?
A: 3 h

Q: And the AUC ([1]; human, plasma, oral, 50 mg/day)?
A: 995 ng·h/mL

Q: And the AUC(0-t) ([1]; human, plasma, oral, 50 mg/day, AUC0-24, Day 1, 50 mg/day (N = 3))?
A: 508 ng·h/mL

Q: And the AUC(0-t) ([1]; human, plasma, oral, 50 mg/day, AUC0-t, Day 1, 50 mg/day (N = 3))?
A: 517 ng·h/mL

Q: What about the AUC(0-t) ([1]; human, plasma, oral, 50 mg/day, AUC0-t, Day 15, 50 mg/day (N = 3)) of the same compound?
A: 1020 ng·h/mL

Q: And the Cmax ([1]; human, plasma, oral, 50 mg/day, Day 1, 50 mg/day (N = 3))?
A: 38.1 ng/mL

Q: What about the Cmax ([1]; human, plasma, oral, 50 mg/day, Day 15, 50 mg/day (N = 3)) of the same compound?
A: 55.6 ng/mL

Q: What about the Tmax ([1]; human, plasma, oral, 50 mg/day, tmax, Day 1, 50 mg/day (N = 3), median (range)) of the same compound?
A: 3 h

Q: And the Tmax ([1]; human, plasma, oral, 50 mg/day, tmax, Day 15, 50 mg/day (N = 3), median (range))?
A: 3.9 h

Q: And the AUC ([1]; human, plasma, oral, 100 mg/day)?
A: 5420 ng·h/mL

Q: What about the AUC(0-t) ([1]; human, plasma, oral, 100 mg/day, AUC0-24, Day 1, 100 mg/day (N = 3)) of the same compound?
A: 1480 ng·h/mL

Q: And the AUC(0-t) ([1]; human, plasma, oral, 100 mg/day, AUC0-t, Day 1, 100 mg/day (N = 3))?
A: 1540 ng·h/mL

Q: What about the AUC(0-t) ([1]; human, plasma, oral, 100 mg/day, AUC0-t, Day 15, 100 mg/day (N = 3)) of the same compound?
A: 5660 ng·h/mL

Q: What about the Cmax ([1]; human, plasma, oral, 100 mg/day, Day 1, 100 mg/day (N = 3)) of the same compound?
A: 97.3 ng/mL

Q: What about the Cmax ([1]; human, plasma, oral, 100 mg/day, Day 15, 100 mg/day (N = 3)) of the same compound?
A: 273 ng/mL

Q: And the Tmax ([1]; human, plasma, oral, 100 mg/day, tmax, Day 1, 100 mg/day (N = 3), median (range))?
A: 2 h

Q: What about the Tmax ([1]; human, plasma, oral, 100 mg/day, tmax, Day 15, 100 mg/day (N = 3), median (range)) of the same compound?
A: 4 h

Q: And the AUC ([1]; human, plasma, oral, 150 mg/day)?
A: 4980 ng·h/mL

Q: And the AUC(0-t) ([1]; human, plasma, oral, 150 mg/day, AUC0-24, Day 1, 150 mg/day (N = 3))?
A: 1580 ng·h/mL

Q: What about the AUC(0-t) ([1]; human, plasma, oral, 150 mg/day, AUC0-t, Day 1, 150 mg/day (N = 3)) of the same compound?
A: 1560 ng·h/mL

Q: And the AUC(0-t) ([1]; human, plasma, oral, 150 mg/day, AUC0-t, Day 15, 150 mg/day (N = 3))?
A: 4950 ng·h/mL

Q: What about the Cmax ([1]; human, plasma, oral, 150 mg/day, Day 1, 150 mg/day (N = 3)) of the same compound?
A: 128 ng/mL

Q: What about the Cmax ([1]; human, plasma, oral, 150 mg/day, Day 15, 150 mg/day (N = 3)) of the same compound?
A: 321 ng/mL

Q: And the Tmax ([1]; human, plasma, oral, 150 mg/day, tmax, Day 1, 150 mg/day (N = 3), median (range))?
A: 3.1 h

Q: What about the Tmax ([1]; human, plasma, oral, 150 mg/day, tmax, Day 15, 150 mg/day (N = 3), median (range)) of the same compound?
A: 2.1 h

Q: And the AUC ([1]; human, plasma, oral, 250 mg/day)?
A: 13300 ng·h/mL

Q: What about the AUC(0-t) ([1]; human, plasma, oral, 250 mg/day, AUC0-24, Day 1, 250 mg/day (N = 4)) of the same compound?
A: 4740 ng·h/mL

Q: And the AUC(0-t) ([1]; human, plasma, oral, 250 mg/day, AUC0-t, Day 1, 250 mg/day (N = 4))?
A: 4850 ng·h/mL

Q: And the AUC(0-t) ([1]; human, plasma, oral, 250 mg/day, AUC0-t, Day 15, 250 mg/day (N = 4))?
A: 14200 ng·h/mL

Q: And the Cmax ([1]; human, plasma, oral, 250 mg/day, Day 1, 250 mg/day (N = 4))?
A: 435 ng/mL

Q: What about the Cmax ([1]; human, plasma, oral, 250 mg/day, Day 15, 250 mg/day (N = 4)) of the same compound?
A: 732 ng/mL

Q: What about the Tmax ([1]; human, plasma, oral, 250 mg/day, tmax, Day 1, 250 mg/day (N = 4), median (range)) of the same compound?
A: 3.5 h

Q: And the Tmax ([1]; human, plasma, oral, 250 mg/day, tmax, Day 15, 250 mg/day (N = 4), median (range))?
A: 3.5 h

Q: And the AUC ([1]; human, plasma, oral, 350 mg/day)?
A: 16800 ng·h/mL

Q: And the AUC(0-t) ([1]; human, plasma, oral, 350 mg/day, AUC0-24, Day 1, 350 mg/day (N = 4))?
A: 5180 ng·h/mL

Q: And the AUC(0-t) ([1]; human, plasma, oral, 350 mg/day, AUC0-t, Day 1, 350 mg/day (N = 4))?
A: 5320 ng·h/mL

Q: What about the AUC(0-t) ([1]; human, plasma, oral, 350 mg/day, AUC0-t, Day 15, 350 mg/day (N = 4)) of the same compound?
A: 17900 ng·h/mL

Q: What about the Cmax ([1]; human, plasma, oral, 350 mg/day, Day 1, 350 mg/day (N = 4)) of the same compound?
A: 334 ng/mL

Q: And the Cmax ([1]; human, plasma, oral, 350 mg/day, Day 15, 350 mg/day (N = 4))?
A: 869 ng/mL

Q: And the Tmax ([1]; human, plasma, oral, 350 mg/day, tmax, Day 1, 350 mg/day (N = 4), median (range))?
A: 5 h

Q: And the Tmax ([1]; human, plasma, oral, 350 mg/day, tmax, Day 15, 350 mg/day (N = 4), median (range))?
A: 4 h

Q: And the AUC ([1]; human, plasma, oral, 500 mg/day)?
A: 36500 ng·h/mL

Q: What about the AUC(0-t) ([1]; human, plasma, oral, 500 mg/day, AUC0-24, Day 1, 500 mg/day (N = 5)) of the same compound?
A: 17700 ng·h/mL

Q: And the AUC(0-t) ([1]; human, plasma, oral, 500 mg/day, AUC0-t, Day 1, 500 mg/day (N = 5))?
A: 17800 ng·h/mL

Q: And the AUC(0-t) ([1]; human, plasma, oral, 500 mg/day, AUC0-t, Day 15, 500 mg/day (N = 4))?
A: 37600 ng·h/mL

Q: And the Cmax ([1]; human, plasma, oral, 500 mg/day, Day 1, 500 mg/day (N = 5))?
A: 1160 ng/mL

Q: And the Cmax ([1]; human, plasma, oral, 500 mg/day, Day 15, 500 mg/day (N = 4))?
A: 1910 ng/mL

Q: What about the Tmax ([1]; human, plasma, oral, 500 mg/day, tmax, Day 1, 500 mg/day (N = 5), median (range)) of the same compound?
A: 4.1 h

Q: What about the Tmax ([1]; human, plasma, oral, 500 mg/day, tmax, Day 15, 500 mg/day (N = 4), median (range)) of the same compound?
A: 6.8 h

Q: And the AUC ([1]; human, plasma, oral, 700 mg/day)?
A: 25700 ng·h/mL

Q: And the AUC(0-t) ([1]; human, plasma, oral, 700 mg/day, AUC0-24, Day 1, 700 mg/day (N = 5))?
A: 11300 ng·h/mL

Q: And the AUC(0-t) ([1]; human, plasma, oral, 700 mg/day, AUC0-t, Day 1, 700 mg/day (N = 5))?
A: 11500 ng·h/mL

Q: And the AUC(0-t) ([1]; human, plasma, oral, 700 mg/day, AUC0-t, Day 15, 700 mg/day (N = 5))?
A: 25900 ng·h/mL

Q: What about the Cmax ([1]; human, plasma, oral, 700 mg/day, Day 1, 700 mg/day (N = 5)) of the same compound?
A: 839 ng/mL

Q: And the Cmax ([1]; human, plasma, oral, 700 mg/day, Day 15, 700 mg/day (N = 5))?
A: 1310 ng/mL

Q: What about the Tmax ([1]; human, plasma, oral, 700 mg/day, tmax, Day 1, 700 mg/day (N = 5), median (range)) of the same compound?
A: 4 h

Q: What about the Tmax ([1]; human, plasma, oral, 700 mg/day, tmax, Day 15, 700 mg/day (N = 5), median (range)) of the same compound?
A: 6.1 h

Q: And the Tmax ([1]; human, plasma, oral, median tmax, range across dose levels, day 1)?
A: 2 to 5 h

Q: And the Tmax ([1]; human, plasma, oral, median tmax, range across dose levels, day 15)?
A: 2.1 to 6.8 h

Q: What about the antitumor efficacy [2] of the same compound?
A: dose-dependent antitumor efficacy

Q: And the oral bioavailability [3]?
A: acceptable
